Experimental data: publication PMC11098465, “A comparative analysis of peptide-delivered antisense antibiotics using diverse nucleotide mimics” (RNA, 2024)
“And” between values parts separate entries of the source, which are not always exact repeats. Equal values may be shown once.

Assays:
[1] = test system: 10 nt long target mRNA (acpP, fully complementary 10mer RNA fragment); assay: Thermal UV melting curves of ASO:RNA duplexes; assay type: binding, Salmonella; settings: unconjugated ASO and 10 nt target RNA, 2 µM each mixed 1:1; 100 mM NaCl, 10 mM phosphate, pH 7.0; UV 260 nm, 10-90°C at 0.5°C/min, five ramps; two-state fit
Method: Next, we assessed the melting temperatures of each ASO:RNA duplex across a temperature range of 10°C–90°C (Fig. 3A; Supplemental Fig. S3). In this experiment, we used a fully complementary 10mer RNA fragment instead of the 40 nt long target RNA sequence, because the longer target might form internal secondary structures that could interfere with the measurement of the melting temperature. […] This is in line with previous observations ([Freier and Altmann 1997]) and our EMSA results (Fig. 2). […] The melting temperature of RNA-F and RNA-MOE was around 56°C (Table 1).
Three hundred microliters of 10 nt long target mRNA (2 µM) was mixed with 300 µL of each of the ASOs (2 µM) in phosphate buffer (100 mM NaCl, 10 mM phosphate, pH 7.0). Thermal UV melting curves were recorded at Agilent Cary UV–Vis Multicell Peltier. Before measurement, the samples were overlaid with silicon oil to prevent evaporation during heating. Five temperature ramps with a heating/cooling rate of 0.5°C/min between 10°C and 90°C at 260 nm were collected. All the melting curves were plotted using OriginPro 2023, fit to a two-state transition model with upper and lower baselines to determine Tm as previously reported ([Dietzsch et al. 2022]).

[2] = test system: Cy5 5′-labeled acpP target RNA (40 nt, −20 to +20); assay: Microscale thermophoresis (MST) binding affinity; parameters: species or system Salmonella; settings: for EC50 of binding to target mRNA by MST (in words): unconjugated ASO; for EC50: read-out: mRNA-binding affinity (EC50)
From the text: To further quantify the binding affinities of the ASOs to the target mRNA, we used MST, a sensitive technique that measures a temperature-induced change in the fluorescence of a substrate as a function of the concentration of a nonfluorescent ligand ([Moon et al. 2018]; [Zimmer et al. 2021]). MST allowed us to quantify target affinity by calculating EC50 values, the half maximal effective concentration of binding to target mRNA (Table 1; Supplemental Fig. S4). […] Both are known to adopt C3′-endo ribose pucker conformation, which enhances their binding affinity to target mRNA ([Julien et al. 2008]; [Pallan et al. 2012]).
For each binding experiment, Cy5 5′-labeled RNA (as described above) was diluted to 10 nM in buffer A (50 mM Tris-HCl pH 7.6, 250 mM KCl, 5 mM MgCl2, 1 mM DTT, 5% glycerol supplemented with 0.05% Tween 20). A series of 16 tubes with different ASO dilutions (500–0.015 nM) were prepared in buffer A. For measurements, each ASO dilution was mixed with one volume of labeled RNA, which led to a final concentration of 5 nM labeled RNA and 250–0.007 nM of ASOs. The reaction was mixed by pipetting and incubated for 30 min at RT in the dark. Capillary forces were used to load the samples into Monolith NT.115 Premium Capillaries; measurements were performed using a Monolith Pico instrument (NanoTemper Technologies Gmbh) at an ambient temperature of 25°C. Instrument parameters were adjusted to 5% LED power, medium MST power, and MST on-time of 2.5 s. An initial fluorescence scan was performed across the capillaries to determine sample quality, which was followed by 16 thermophoresis measurements. […] Data of two independent measurements were analyzed for the ΔFnorm value determined by the MO Affinity Analysis software (NanoTemper Technologies Gmbh). The fitting for EC50 values was done using the Hill equation within the MO Affinity Analysis software. Data are presented as the mean EC50 values of two independent experiments.

[3] = test system: 5′ Cy5-labeled acpP target RNA (40 nt); assay: Electrophoretic mobility shift assay (EMSA); assay type: binding, Salmonella; parameters: key to mRNA hybridization (EMSA): +++: Effect strength is represented by additional (+) signs.; ++: Effect strength is represented by additional (+) signs.; Effect strength is represented by additional (+) signs; settings: unconjugated ASO, ASO:RNA 0.3:1 to 2.5:1; for Shift of target mRNA in EMSA (in words): 30 min RT, 15% native PAA gel; for mRNA hybridization (EMSA): summary grade
Method: To compare the ability of the unconjugated ASOs to hybridize to the target transcript, we used electrophoretic mobility shift assays (EMSAs), thermal UV melting curves, and microscale thermophoresis (MST). We first conducted EMSAs using a 40 nt target RNA sequence (nt −20 to +20 relative to the acpP translational start codon), which was 5′-labeled with a Cy5 dye. Sequence-specific ASOs were added at defined ASO:RNA ratios, while water or a scrambled PNA (PNAscr) were used as negative controls. We performed these binding studies with unconjugated ASOs, because the KFF carrier peptide is cleaved during transport into the bacterial cytoplasm ([Yavari et al. 2021]). […] The DNA-PTO modification is known to reduce the binding affinity of the ASO to its target RNA ([Chan et al. 2006]), and a 10mer might be too short to mediate interactions under our experimental conditions. To test if an excess of unspecific RNA impacts target binding, we also included samples that contained 1 μg yeast tRNA.
The EMSA was performed with a Cy5 5′-labeled RNA (purchased from Eurofins) encompassing the sequence spanning nucleotides −20 to +20 of acpP relative to the translation start codon. For annealing, TM buffer (10 mM Tris-HCl, 50 mM MgCl2) was used. First, 20 µM RNA was denatured by incubation at 95°C for 5 min followed by placement on ice. Then 1 µL of RNA (spiked with or without 1 µL of yeast tRNA [Ambion at a concentration of 10 mg/mL]) was added to PCR tubes containing 8 µL of water. To this, 1 µL of ASOs at the indicated concentrations (6.25–50 µM) was added to adjust ASO:RNA ratios of 0.3:1 to 2.5:1. As negative control, water was added instead of ASO, while a PNAscr sequence served as sequence-unspecific negative control (Fig. 2; Supplemental Fig. S2). These mixtures were incubated for 30 min at room temperature (RT), followed by the addition of 10 µL 2× gel loading (GL) buffer for subsequent loading on native 15% PAA RNA gel without urea (20 µL/sample; 6 µL of a 50 bp DNA marker + 14 µL 1× GL). The gel was run at 100–120 V for 2–3 h, concomitantly stained with SYBR gold (Thermo Fisher Scientific) for 15 min and imaged on Geldoc (Isogen Life Science B.V.).

[4] = unconjugated ASO 250-0.007 nM, 5 nM Cy5 RNA, 50 mM Tris-HCl pH 7.6, 250 mM KCl, 5 mM MgCl2, 30 min RT, 25°C, Hill fit, mean ± SD, two independent experiments

Row | Substance | Tm of ASO:mRNA complexes [1] | mRNA-binding affinity (EC50) [2, 4] | Shift of target mRNA in EMSA (in words) [3] | EC50 of binding to target mRNA by MST (in words) [2] | EC50 [2, 4] [nM] | mRNA hybridization (EMSA) [3]
1 | DNA-PTO: phosphorothioate-modified DNA 10mer ASO, sequence CTCATACTCT, targeting acpP −5 to +5 (DNA, all phosphorothioate, methylation of C not given here) | 25.8 °C and 25.8 ± 0.7 °C | Could not be determined | did not interact with the target mRNA at any of the concentrations tested | – | – | –
2 | PNA: peptide nucleic acid 10mer ASO, sequence CTCATACTCT, targeting acpP −5 to +5 (all peptide nucleic acid (PNA)) | 44.3 °C and 44.3 ± 1.1 °C | – | concentration-dependent shift of the target mRNA, starting at a 0.3:1 ratio of ASO:RNA | upper picomolar range | 0.4 ± 0.4 | +++
3 | LNA: 2′–4′-locked RNA 10mer ASO, sequence CTCATACTCT, targeting acpP −5 to +5 (all LNA, backbone and methylation of C not given here) | 87.4 °C and 87.4 ± 2 °C | – | concentration-dependent shift of the target mRNA, starting at a 0.3:1 ratio of ASO:RNA | upper picomolar range | 0.3 ± 0.1 | +++
4 | RNA-F: 2′-fluorinated RNA 10mer ASO, sequence CTCATACTCT, targeting acpP −5 to +5 (all 2'-fluoro, backbone and T or U not given here) | – | – | concentration-dependent shift of the target mRNA, starting at a 0.3:1 ratio of ASO:RNA | lower-mid nanomolar range | 72.8 ± 36.2 | ++
5 | PMO: phosphorodiamidate morpholino 10mer ASO, sequence CTCATACTCT, targeting acpP −5 to +5 (all phosphorodiamidate morpholino (PMO)) | 41.8 °C and 41.8 ± 0.6 °C | – | limited binding even at 2.5× excess | lower-mid nanomolar range | 5.9 ± 2.7 | +
6 | RNA-MOE: 2′-methoxyethylated RNA 10mer ASO, sequence CTCATACTCT, targeting acpP −5 to +5 (all 2'-MOE, backbone and methylation of C not given here) | – | – | concentration-dependent shift of the target mRNA, starting at a 0.3:1 ratio of ASO:RNA | upper picomolar range | 0.3 ± 0.2 | ++
7 | RNA-OMe: 2′-methylated RNA 10mer ASO, sequence CTCATACTCT, targeting acpP −5 to +5 (all 2'-O-methyl, backbone and T or U not given here) | 48.3 °C and 48.3 ± 0.8 °C | – | did not interact with the target mRNA at any of the concentrations tested | lower-mid nanomolar range | 4 ± 0.2 | –
